Assay results: ChEMBL document CHEMBL1140442, “Potent cannabinergic indole analogues as radioiodinatable brain imaging agents for the CB1 cannabinoid receptor” (J Med Chem, 2005)

Assays:
[1] = target: Cannabinoid receptor 1 (Rattus norvegicus, UniProt P20272); assay: Binding affinity towards rat forebrain cannabinoid receptor 1 using [3H]CP-55940
[2] = target: Cannabinoid receptor 2 (Mus musculus, UniProt P47936); assay: Binding affinity towards mouse spleen cannabinoid receptor 2 using [3H]CP-55940; type: tissue-based
[3] = target: T1, Cannabinoid receptor 1 (Mus musculus, UniProt P47746); assay: Binding affinity towards mouse hippocampal membranes cannabinoid receptor 1 using [3H]SR-141,716A
[4] = target: T1, Cannabinoid receptor 1; assay: Binding affinity towards mouse hippocampal membranes cannabinoid receptor 1 using [131I]-(R)-8

Sequence of Cannabinoid receptor 1 (Rattus norvegicus, UniProt P20272) (P20272 whole entry): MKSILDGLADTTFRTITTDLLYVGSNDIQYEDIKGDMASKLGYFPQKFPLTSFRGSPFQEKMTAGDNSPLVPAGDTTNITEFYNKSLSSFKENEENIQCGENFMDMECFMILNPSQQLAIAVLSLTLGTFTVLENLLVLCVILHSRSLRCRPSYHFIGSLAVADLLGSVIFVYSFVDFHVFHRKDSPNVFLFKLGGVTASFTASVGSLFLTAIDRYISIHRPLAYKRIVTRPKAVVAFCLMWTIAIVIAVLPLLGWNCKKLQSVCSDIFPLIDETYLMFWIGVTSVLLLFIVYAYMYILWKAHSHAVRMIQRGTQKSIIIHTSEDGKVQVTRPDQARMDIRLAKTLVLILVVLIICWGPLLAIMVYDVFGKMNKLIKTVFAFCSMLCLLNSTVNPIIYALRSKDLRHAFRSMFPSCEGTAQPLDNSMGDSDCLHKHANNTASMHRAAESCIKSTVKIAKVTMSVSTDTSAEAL
Sequence of Cannabinoid receptor 2 (P47936 whole entry): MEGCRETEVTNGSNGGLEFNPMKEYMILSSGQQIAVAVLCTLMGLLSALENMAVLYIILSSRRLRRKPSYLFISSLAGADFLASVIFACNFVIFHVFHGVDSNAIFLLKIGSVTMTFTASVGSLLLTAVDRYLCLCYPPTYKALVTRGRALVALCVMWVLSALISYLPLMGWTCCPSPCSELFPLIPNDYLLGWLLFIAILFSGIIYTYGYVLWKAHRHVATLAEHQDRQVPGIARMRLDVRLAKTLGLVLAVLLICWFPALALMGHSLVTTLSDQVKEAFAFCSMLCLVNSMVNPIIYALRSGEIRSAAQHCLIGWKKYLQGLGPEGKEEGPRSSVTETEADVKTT
T1 sequence (P47746 whole entry): as the sequence (P20272 whole entry) above, with E95D counted along it

Work on `CN1CCCC[C@H]1Cn1cc(C(=O)c2ccccc2I)c2ccccc21` yielded a Ki [1] of 560 nM.
For `Cc1c(C(=O)c2ccc(I)cc2)c2ccccc2n1CC1CCCCN1C` (configuration not stated), the Ki [2] was 790 nM.
Molecule `Cc1c(C(=O)c2cccc(I)c2)c2ccccc2n1CC1CCCCN1C` (configuration not stated) has a Ki [2] of 9600 nM and a Ki [1] of 2900 nM.
`CN1CCCCC1Cn1cc(C(=O)c2ccccc2I)c2ccccc21` (configuration not stated) gave a Ki [3] of 1.3 nM and a Ki [4] of 0.2 nM.
With `CN1CCCCC1Cn1cc(C(=O)c2ccc(I)c3ccccc23)c2ccccc21` (configuration not stated) the Ki [2] was 5.3 nM.
`CN1CCCCC1Cn1cc(C(=O)c2cccc3ccccc23)c2ccc(I)cc21` (configuration not stated) gave a Ki [2] of 9.8 nM and a Ki [1] of 18 nM.
Work on `CN1CCCCC1Cn1cc(C(=O)c2cccc3ccccc23)c2ccccc21` (configuration not stated) yielded a Ki [2] of 1.91 nM and a Ki [1] of 0.75 nM.
`Cc1c(C(=O)c2ccccc2I)c2ccccc2n1CC1CCCCN1C` (single isomer, unassigned; (+)) was tested, and the Ki [2] was 10 nM and the Ki [1] was 6.7 nM.
For `Cc1c(C(=O)c2ccccc2I)c2ccccc2n1CC1CCCCN1C` (single isomer, unassigned; (-)), the Ki [2] was 83 nM and the Ki [1] was 1200 nM.
Work on `Cc1c(C(=O)c2ccccc2I)c2ccccc2n1CC1CCCCN1C` (stereo in doubt; 5) yielded a Ki [2] of 34 nM and a Ki [1] of 34 nM.
